Data taken from patent US20050171195A1, “P2X7 antagonists for treating neuropathic pain” (priority 2003, published 2005).

| SMILES | melting point [°C] |
| --- | --- |
| Cc1ncccc1NC(=NC#N)NC(NC(=O)Cc1ccc(F)c(F)c1)C(C)(C)C (stereo not drawn) [Example 1, N-[1-({(cyanoimino)[(2-methyl-3-pyridinyl)amino]methyl}amino)-2,2-dimethylpropyl]-2-(3,4-difluorophenyl)acetamide] | 58 to 60 |
| Cc1ncccc1NC(=NC#N)NC(NC(=O)Cc1ccc(Cl)cc1)C(C)(C)C (stereo not drawn) [Example 2, 2-(4-chlorophenyl)-N-[1-({(cyanoimino)[(2-methyl-3-pyridinyl)amino]methyl}amino)-2,2-dimethylpropyl]acetamide] | 180 to 181 |
| COc1ccc(CCCC(=O)NC(NC(=NC#N)Nc2cccnc2C)C(C)(C)C)cc1 (stereo not drawn) [Example 3, N-[1-({(cyanoimino)[(2-methyl-3-pyridinyl)amino]methyl}amino)-2,2-dimethylpropyl]-4-(4-methoxyphenyl)butanamide] | 65 to 68 |
| Cc1ccc(CC(=O)NC(NC(=NC#N)Nc2cccnc2C)C(C)(C)C)cc1F (stereo not drawn) [Example 4, N-[1-({(cyanoimino)[(2-methyl-3-pyridinyl)amino]methyl}amino)-2,2-dimethylpropyl]-2-(3-fluoro-4-methylphenyl)acetamide] | 75 to 77 |
| Cc1ncccc1NC(=NC#N)NC(NC(=O)CCCCc1ccccc1)C(C)(C)C (stereo not drawn) [Example 5, N-[1-({(cyanoimino)[(2-methyl-3-pyridinyl)amino]methyl}amino)-2,2-dimethylpropyl]-5-phenylpentanamide] | 133 to 134 |
| Cc1ncccc1NC(=NC#N)NC(NC(=O)Cc1ccc(F)cc1)C(C)(C)C (stereo not drawn) [Example 6, N-[1-({(cyanoimino)[(2-methyl-3-pyridinyl)amino]methyl}amino)-2,2-dimethylpropyl]-2-(4-fluorophenyl)acetamide] | 166 to 167 |
| Cc1ncccc1NC(=NC#N)NC(NC(=O)CCCc1cccs1)C(C)(C)C (stereo not drawn) [Example 7, N-[1-({(cyanoimino)[(2-methyl-3-pyridinyl)amino]methyl}amino)-2,2-dimethylpropyl]-4-(2-thienyl)butanamide] | 66 to 68 |
| CSc1ccc(CC(=O)NC(NC(=NC#N)Nc2cccnc2C)C(C)(C)C)cc1 (stereo not drawn) [Example 8, N-[1-({(cyanoimino)[(2-methyl-3-pyridinyl)amino]methyl}amino)-2,2-dimethylpropyl]-2-[4-(methylthio)phenyl]acetamide] | 172 to 173 |
| CCc1ncccc1NC(=NC#N)NC(NC(=O)Cc1ccc(Cl)cc1)C(C)(C)C (stereo not drawn) [Example 9, 2-(4-chlorophenyl)-N-[1-({(cyanoimino)[(2-ethyl-3-pyridinyl)amino]methyl}amino)-2,2-dimethylpropyl]acetamide] | 112 to 114 |
| COc1ccc(CC(=O)NC(NC(=NC#N)Nc2ccccc2C)C(C)(C)C)cc1 (stereo not drawn) [Example 14, N-[1-({(cyanoimino)[(2-methylphenyl)amino]methyl}amino)-2,2-dimethylpropyl]-2-(4-methoxyphenyl)acetamide] | 174 |
| Cc1ccccc1NC(=NC#N)NC(NC(=O)Cc1ccc2c(c1)OCO2)C(C)(C)C (stereo not drawn) [Example 15, 2-(1,3-benzodioxol-5-yl)-N-[1-({(cyanoimino)[(2-methylphenyl)amino]methyl}amino)-2,2-dimethylpropyl]acetamide] | 152 to 153 |
| CSc1ccc(CC(=O)NC(NC(=NC#N)Nc2ccccc2C)C(C)(C)C)cc1 (stereo not drawn) [Example 16, N-[1-({(cyanoimino)[(2-methylphenyl)amino]methyl}amino)-2,2-dimethylpropyl]-2-[4-(methylthio)phenyl]acetamide] | 151 to 152 |
| Cc1ccccc1NC(=NC#N)NC(NC(=O)Cc1ccc(Cl)cc1)C(C)(C)C (stereo not drawn) [Example 17, 2-(4-chlorophenyl)-N-[1-({(cyanoimino)[(2-methylphenyl)amino]methyl}amino)-2,2-dimethylpropyl]acetamide] | 181 to 182 |
| Cc1ccccc1NC(=NC#N)NC(NC(=O)CCCc1ccccc1)C(C)(C)C (stereo not drawn) [Example 18, N-[1-({(cyanoimino)[(2-methylphenyl)amino]methyl}amino)-2,2-dimethylpropyl]-4-phenylbutanamide] | 153 to 154 |
| COc1ccc(CC(=O)NC(NC(=NC#N)Nc2cc(F)ccc2F)C(C)(C)C)cc1OC (stereo not drawn) [Example 19, N-[1-({(cyanoimino)[(2,5-difluorophenyl)amino]methyl}amino)-2,2-dimethylpropyl]-2-(3,4-dimethoxyphenyl)acetamide] | 190 to 191 |
| COc1ccc(CC(=O)NC(NC(=NC#N)Nc2ccccc2Cl)C(C)(C)C)cc1OC (stereo not drawn) [Example 20, N-(1-{[[(2-chlorophenyl)amino](cyanoimino)methyl]amino}-2,2-dimethylpropyl)-2-(3,4-dimethoxyphenyl)acetamide] | 135 to 136 |
| COc1ccc(CC(=O)NC(NC(=NC#N)Nc2cc(C)ccc2C)C(C)(C)C)cc1OC (stereo not drawn) [Example 21, N-[1-({(cyanoimino)[(2,5-dimethylphenyl)amino]methyl}amino)-2,2-dimethylpropyl]-2-(3,4-dimethoxyphenyl)acetamide] | 93 to 94 |
| COc1ccc(CC(=O)NC(NC(=NC#N)Nc2c(F)cc(F)cc2F)C(C)(C)C)cc1OC (stereo not drawn) [Example 22, N-[1-({(cyanoimino)[(2,4,6-trifluorophenyl)amino]methyl}amino)-2,2-dimethylpropyl]-2-(3,4-dimethoxyphenyl)acetamide] | 170 to 171 |
| COc1ccc(CC(=O)NC(NC(=NC#N)Nc2cc(Cl)ccc2F)C(C)(C)C)cc1OC (stereo not drawn) [Example 23, N-(1-{[[(5-chloro-2-fluorophenyl)amino](cyanoimino)methyl]amino}-2,2-dimethylpropyl)-2-(3,4-dimethoxyphenyl)acetamide] | 187 to 188 |
| COc1ccc(CC(=O)NC(NC(=NC#N)Nc2cccnc2OC)C(C)(C)C)cc1OC (stereo not drawn) [Example 24, N-[1-({(cyanoimino)[(2-methoxy-3-pyridinyl)amino]methyl}amino)-2,2-dimethylpropyl]-2-(3,4-dimethoxyphenyl)acetamide] | 146 to 147 |
| CC(C)(C)C(NC(=O)Cc1ccc(Cl)cc1)NC(=NC#N)Nc1cccnc1Cl (stereo not drawn) [Example 26, 2-(4-chlorophenyl)-N-(1-{[[(2-chloro-3-pyridinyl)amino](cyanoimino)methyl]amino}-2,2-dimethylpropyl)acetamide] | 174 to 175 |
| COc1ccc(NC(=NC#N)NC(NC(=O)Cc2ccc(OC)c(OC)c2)C(C)(C)C)c(OC)n1 (stereo not drawn) [Example 27, N-[1-({(cyanoimino)[(2,6-dimethoxy-3-pyridinyl)amino]methyl}amino)-2,2-dimethylpropyl]-2-(3,4-dimethoxyphenyl)acetamide] | 162 to 163 |
| CSc1ccc(CC(=O)NC(NC(=NC#N)Nc2cccc3ncccc23)C(C)(C)C)cc1 (stereo not drawn) [Example 31, N-(1-{[(cyanoimino)(5-quinolinylamino)methyl]amino}-2,2-dimethylpropyl)-2-[4-(methylthio)phenyl]acetamide] | 188 to 189 |
| CC(C)(C)C(NC(=O)Cc1ccc(Cl)cc1)NC(=NC#N)Nc1cccc2ncccc12 (stereo not drawn) [Example 32, 2-(4-chlorophenyl)-N-(1-{[(cyanoimino)(5-quinolinylamino)methyl]amino}-2,2-dimethylpropyl)acetamide] | 195 to 196 |
